Reference: patent US20240376052A1, “N-SUBSTITUTED INDOLE DERIVATIVES AS SEROTONERGIC AGENTS USEFUL FOR THE TREATMENT OF DISORDERS RELATED THERETO” (Mindset Pharma Inc., priority 2021, published 2024)
Where two headings read alike, the source gives them in different places.

Tests used:
C57BL/6J mice = assay: Mouse head twitch; assay type: in vivo
Method: (§1) The effect of different doses of representative compounds of Formula I were evaluated on head-twitch response (HTR) and other behavioural responses indicative of serotonin syndrome as behavior-based models of psychedelic activity.
Male, C57BL/6J mice (body weight range 20-30 g) were dosed with the appropriate dose of test article, and following a 1-minute pre-treatment time, placed in individual observation chambers. Animals were visually assessed for the incidence head twitches continuously over a 1 hr period. Head twitches were defined as a rapid jerk of the head which was not elicited by an external tactile stimulus (Come and Pickering, Psychopharmacologia, 1967, 11(1): 65-78). Each head twitch was individually counted by a trained observer, and the data expressed as the mean+SEM of 6-10 mice per group. Mice were used in a single experiment only.

Sprague-Dawley rats = assay: Drug discrimination in the rat (5-MeO-DMT cue); assay type: in vivo; conditions: FIG. 8; for dose required to show generalization to the 5-MeO-DMT cue: oral administration
Method: Male Sprague-Dawley rats were initially food restricted by presentation of 18-20 g food at day end (single housing). After 7 days acclimatisation to the food restriction procedure, they were trained daily to lever press for food (45 mg Bioserve pellet) in standard 2-lever operant conditioning chambers controlled by Med-PC software over a period of 1 week (Med. Associates Ins., St. Albans, VT). The rats were trained to lever press for food to an FR10 value (i.e 10 lever presses for a single food reward). Once stable food responding was acquired to both response levers, discrimination training began. […] Training sessions lasted 30-min or until the delivery of 50 pellets and continued until the animals attained appropriate stimulus control (defined as six consecutive sessions where animals made no more than 16 lever presses before the delivery of the first reward, and at least 95% total responses on the appropriate lever). The rats continued to receive daily food ration in their home cage at day end.
Once trained, tests of substitution were conducted. […] Test sessions continued until 50 pellets had been obtained or 30 min had elapsed. During these sessions response rate was also measured.

human 5-HT2A receptor = human 5-HT2A receptor (Homo sapiens (Human), UniProt P28223); assay: Human 5-HT2A radioligand binding assay ([3H]-ketanserin)
mice = assay: Mouse 5-HT syndrome assay; assay type: in vivo; conditions: doses of up to 30 mg/kg
Method: as §1

[1] = Liver microsomes stability, dog; conditions: for Remaining Percentage (%): Dog
[2] = Liver microsomes stability, human; conditions: for Remaining Percentage (%): Human
Method: (§2) The objective of this study was to estimate in vitro metabolic stability of representative compounds of the application in pooled human and male mouse liver microsomes. The concentrations of parent compounds in reaction systems were evaluated by LC-MS/MS for estimating the stability in pooled human and male mouse liver microsomes. The in vitro intrinsic clearances of test compounds were determined as well.
(§3) A master solution in the “Incubation Plate” containing phosphate buffer, ultra-pure H2O, MgCl2 solution and liver microsomes was made according to Table 3. The mixture was pre-warmed at 37° C. water bath for 5 minutes.
(§4) 40 μL of 10 mM NADPH solution was added to each well. The final concentration of NADPH was 1 mM. The negative control samples were prepared by replacing NADPH with 40 μL of ultra-pure H2O. Samples were prepared in duplicate. Negative controls were prepared in singlet.
(§5) The reaction was started with the addition of 4 μL of 200 μM test compounds or control compounds to each master solution to get the final concentration of 2 μM. This study was performed in duplicate.
(§6) Aliquots of 50 μL were taken from the reaction solution at 0, 15, 30, 45 and 60 minutes. The reaction solutions were stopped by the addition of 4 volumes of cold methanol with IS (100 nM alprazolam, 200 nM imipramine, 200 nM labetalol and 2 μM ketoprofen). Samples were centrifuged at 3,220 g for 40 minutes. Aliquot of 90 μL of the supernatant was mixed with 90 μL of ultra-pure H2O and then was used for LC-MS/MS analysis.
(§7) LC/MS analysis was performed for all samples from this study using a Shimadzu liquid chromatograph separation system equipped with degasser DGU-20A5R; solvent delivery unit LC-30AD; system controller SIL-30AC; column oven CTO-30A; CTC Analytics HTC PAL System. Mass spectrometric analysis was performed using an Triple Quad™ 5500 instrument.
(§8) All calculations were carried out using Microsoft Excel. Peak area ratios of test compound to internal standard (listed in the below table) were determined from extracted ion chromatograms.
(§9) All calculations were carried out using Microsoft Excel. Peak areas were determined from extracted ion chromatograms. The slope value, k, was determined by linear regression of the natural logarithm of the remaining percentage of the parent drug vs. incubation time curve.
(§10) The in vitro half-life (in vitro t1/2) was determined from the slope value:
(§11) Conversion of the in vitro t1/2(min) into the in vitro intrinsic clearance (in vitro CLint, in μL/min/mg proteins) was done using the following equation (mean of duplicate determinations): […]

[3] = Liver microsomes stability, mouse; conditions: for Remaining Percentage (%): Mouse
Method: as §2, §3, §4, §5, §6, §7, §8, §9, §10, §11

[4] = Liver microsomes stability, rat; conditions: for Remaining Percentage (%): Rat
Method: as §2, §3, §4, §5, §6, §7, §8, §9, §10, §11

**Q.** For `COc1ccc2[nH]cc(CCN(C)C)c2c1` [Compound 5-MeO-DMT, 5-methoxy-dimethoxytryptamine, reference compound], which “ED50, head twitch response” value (C57BL/6J mice; mouse, SC) is on record?
**A.** Its value is 8 mg/kg.

**Q.** What about the “duration of HT expression” value (C57BL/6J mice; mouse, at 10-30 mg/kg) of the same molecule?
**A.** Its value is 0 to 20 min.

**Q.** And the “ED50, generalization to the 5-MeO-DMT cue” value (Sprague-Dawley rats; SC administration)?
**A.** The value was roughly 0.2 mg/kg.

**Q.** What about the “dose required to show generalization to the 5-MeO-DMT cue” value (Sprague-Dawley rats) of the same molecule?
**A.** Its value is 10 mg/kg.

**Q.** With `[2H]C([2H])(c1cn(C(=O)CCCCCCC/C=C\C/C=C\CCCCC)c2ccc(OC)cc12)[C@H]1CCCN1C([2H])([2H])[2H]` [Compound I-3, (9Z,12Z)-1-(5-Methoxy-3-(((R)-1-(methyl-d3)pyrrolidin-2-yl)methyl-d2)-1H-indol-1-yl)octadeca-9,12-dien-1-one] as the molecule, how does the IC50 (human 5-HT2A receptor) read?
**A.** Its IC50 is less than 2000 nM.

**Q.** What about the “signs of 5-HT syndrome” value (mice) of the same molecule?
**A.** Its value is “no signs of 5-HT syndrome”.

**Q.** What about the head twitch response (C57BL/6J mice; mouse, doses of up to 30 mg/kg) of the same molecule?
**A.** Its head twitch response is “robust head twitch response”.

**Q.** What about the ED50 (Sprague-Dawley rats; Rattus norvegicus, read-out: ED50, generalization to the 5-MeO-DMT cue, SC administration) of the same molecule?
**A.** Its ED50 is roughly 6 mg/kg.

**Q.** And the “dose required to show generalization to the 5-MeO-DMT cue” value (Sprague-Dawley rats)?
**A.** The value was 100 mg/kg.

**Q.** For `CCCCC/C=C\C/C=C\CCCCCCCC(=O)n1cc(CCN(C)C)c2ccccc21` [Compound I-8, (9Z,12Z)-1-(3-(2-(Dimethylamino)ethyl)-1H-indol-1-yl)octadeca-9,12-dien-1-one], which IC50 (human 5-HT2A receptor; [3H]-ketanserin competition, read-out: h5-HT2A IC50) is on record?
**A.** The IC50 was less than 2000 nM.

**Q.** What about the “Predicted hepatic CL” value ([1]; Dog liver microsomes) of the same molecule?
**A.** The value was 18.69 mL/min/kg.

**Q.** And the “Remaining Percentage (%)” value ([1]; With NADPH, 0 min)?
**A.** The value was 100.00%.

**Q.** What about the “Remaining Percentage (%)” value ([1]; With NADPH, 30 min) of the same molecule?
**A.** Its value is 66.41%.

**Q.** And the “Remaining Percentage (%)” value ([1]; With NADPH, 60 min)?
**A.** The value was 56.62%.

**Q.** And the “Remaining Percentage (%)” value ([1]; Without NADPH, 0 min)?
**A.** The value was 100.00%.

**Q.** What about the “Remaining Percentage (%)” value ([1]; Without NADPH, 30 min) of the same molecule?
**A.** The value was 84.36%.

**Q.** What about the “Remaining Percentage (%)” value ([1]; Without NADPH, 60 min) of the same molecule?
**A.** The value was 92.44%.

**Q.** What about the CLint scaled at 2 μM ([1]; dog, microsomes) of the same molecule?
**A.** The CLint scaled at 2 μM was 47.3 mL/min/kg.

**Q.** What about the half-life at 2 μM ([1]; dog, microsomes) of the same molecule?
**A.** The half-life at 2 μM was 1.22 h.

**Q.** And the microsomal CLint at 2 μM ([1]; dog, microsomes)?
**A.** Its microsomal CLint at 2 μM is 19 µL/min/mg.

**Q.** What about the “Predicted hepatic CL” value ([2]; Human liver microsomes) of the same molecule?
**A.** The value was 2.16 mL/min/kg.

**Q.** And the “Remaining Percentage (%)” value ([2]; With NADPH, 0 min)?
**A.** The value was 100.00%.

**Q.** What about the “Remaining Percentage (%)” value ([2]; With NADPH, 30 min) of the same molecule?
**A.** The value was 91.39%.

**Q.** And the “Remaining Percentage (%)” value ([2]; With NADPH, 60 min)?
**A.** Its value is 94.38%.

**Q.** And the “Remaining Percentage (%)” value ([2]; Without NADPH, 0 min)?
**A.** Its value is 100.00%.

**Q.** What about the “Remaining Percentage (%)” value ([2]; Without NADPH, 30 min) of the same molecule?
**A.** The value was 91.04%.

**Q.** What about the “Remaining Percentage (%)” value ([2]; Without NADPH, 60 min) of the same molecule?
**A.** The value was 100.94%.

**Q.** And the CLint scaled at 2 μM ([2]; human, microsomes)?
**A.** The CLint scaled at 2 μM was 2.42 mL/min/kg.

**Q.** What about the half-life at 2 μM ([2]; human, microsomes) of the same molecule?
**A.** The half-life at 2 μM was 12 h.

**Q.** And the microsomal CLint at 2 μM ([2]; human, microsomes)?
**A.** The microsomal CLint at 2 μM was 1.93 µL/min/mg.

**Q.** What about the “Predicted hepatic CL” value ([3]; Mouse liver microsomes) of the same molecule?
**A.** The value was 6.52 mL/min/kg.

**Q.** What about the “Remaining Percentage (%)” value ([3]; With NADPH, 0 min) of the same molecule?
**A.** The value was 100.00%.

**Q.** And the “Remaining Percentage (%)” value ([3]; With NADPH, 30 min)?
**A.** The value was 105.41%.

**Q.** And the “Remaining Percentage (%)” value ([3]; With NADPH, 60 min)?
**A.** Its value is 95.29%.

**Q.** What about the “Remaining Percentage (%)” value ([3]; Without NADPH, 0 min) of the same molecule?
**A.** Its value is 100.00%.

**Q.** And the “Remaining Percentage (%)” value ([3]; Without NADPH, 30 min)?
**A.** Its value is 87.39%.

**Q.** And the “Remaining Percentage (%)” value ([3]; Without NADPH, 60 min)?
**A.** Its value is 85.47%.

**Q.** And the CLint scaled at 2 μM ([3]; male, mouse, microsomes)?
**A.** Its CLint scaled at 2 μM is 7.03 mL/min/kg.

**Q.** What about the half-life at 2 μM ([3]; male, mouse, microsomes) of the same molecule?
**A.** Its half-life at 2 μM is 14.4 h.

**Q.** What about the microsomal CLint at 2 μM ([3]; male, mouse, microsomes) of the same molecule?
**A.** The microsomal CLint at 2 μM was 1.61 µL/min/mg.

**Q.** What about the “Predicted hepatic CL” value ([4]; Rat liver microsomes) of the same molecule?
**A.** Its value is 12.94 mL/min/kg.

**Q.** What about the “Remaining Percentage (%)” value ([4]; With NADPH, 0 min) of the same molecule?
**A.** The value was 100.00%.

**Q.** And the “Remaining Percentage (%)” value ([4]; With NADPH, 30 min)?
**A.** The value was 91.29%.

**Q.** What about the “Remaining Percentage (%)” value ([4]; With NADPH, 60 min) of the same molecule?
**A.** The value was 75.35%.

**Q.** And the “Remaining Percentage (%)” value ([4]; Without NADPH, 0 min)?
**A.** Its value is 100.00%.

**Q.** And the “Remaining Percentage (%)” value ([4]; Without NADPH, 30 min)?
**A.** The value was 107.31%.

**Q.** What about the “Remaining Percentage (%)” value ([4]; Without NADPH, 60 min) of the same molecule?
**A.** Its value is 109.93%.

**Q.** And the CLint scaled at 2 μM ([4]; rat, microsomes)?
**A.** The CLint scaled at 2 μM was 16.9 mL/min/kg.

**Q.** And the half-life at 2 μM ([4]; rat, microsomes)?
**A.** The half-life at 2 μM was 2.45 h.

**Q.** What about the microsomal CLint at 2 μM ([4]; rat, microsomes) of the same molecule?
**A.** Its microsomal CLint at 2 μM is 9.44 µL/min/mg.

**Q.** With `COc1cccc([C@H](O)C2CCN(CCc3ccc(F)cc3)CC2)c1OC` [Compound M100907, reference compound] as the molecule, how does the “effect of antagonist pretreatment on HTR induced by I-1” value (C57BL/6J mice; mice pretreated with M100907 prior to I-1) read?
**A.** Its value is “completely blocked”.
